Data set [1] deals with PAR1 (Homo sapiens (Human), UniProt P25116). As to conditions: ACS patients, phase III; cited from earlier work.
The subject of data set [2] is carotid artery thrombosis. Put plainly: cynomolgus monkey electrolytic injury-induced carotid artery thrombosis model. The data set is classed as in vivo. The following applies: arterial thrombosis model in cynomolgus monkeys.
In data set [3] the test system is human washed platelets. Put plainly: Alpha-thrombin induced platelet aggregation assay. The data set is classed as cell-based. The following applies: 0.1 h, read-out: IC50 for the inhibition of platelet aggregation. How it is done: Example D is an alpha-thrombin-induced platelet aggregation assay. Alpha-thrombin activates both PAR1 and PAR4.
Human blood was collected in ACD (85 mM tri-sodium citrate, 78 mM citric acid, 110 mM D-glucose, pH 4.4) at a ratio of 1.4 ml per 10 ml blood. PRP was isolated by centrifugation at 170 g for 14 minutes and platelets were further pelleted by centrifugation at 1300 g for 6 minutes. Platelets were washed once with 10 ml ACD containing 1 mg/ml bovine serum albumin. Platelets were resuspended at ˜2.5×10^8/ml in Tyrode's Buffer (137 mM NaCl, 2 mM KCl, 1.0 mM MgCl2, 1 mM CaCl2, 5 mM glucose, 20 mM HEPES pH 7.4).
The ability of PAR4 antagonist to inhibit platelet aggregation induced by alpha-thrombin was tested using human washed platelets. […] Aggregation was initiated by addition of 1.5 nM alpha-thrombin (Haematologic Technologies, Essex Junction, Vt.) to 300 μl of washed platelets at stirring speed of 1000 rpm. […] IC50 was calculated using vehicle control as 0% inhibition.

For data set [4], the system named is carotid artery thrombosis. The experiment in a line: Cynomolgus monkey electrolytic injury-induced carotid artery thrombosis model. The following applies: oral, 1 to 2 hours before the experiment. It is filed as in vivo. From the text:
The efficacy of the PAR4 antagonists of the present invention in preventing thrombosis can also be measured in a variety of in vivo assays. Exemplary mammals that can provide models of thrombosis and hemostasis to test the effectiveness of the PAR4 antagonists of the present invention as antithrombotic agents include, but are not limited to, guinea pigs and primates. Relevant efficacy models include, but are not limited to, electrolytic injury-induced carotid artery thrombosis, FeCl3-induced carotid artery thrombosis and arteriovenous-shunt thrombosis. […]
On the day of the study, compounds or vehicles were administered orally at 1 to 2 hours before the experiment. […] Blood pressure and heart rate were monitored to maintain normal vital signs.
Carotid blood flow was measured with an appropriately sized TRANSONIC® flow probe and a TRANSONIC® perivascular flowmeter (TS420 Model, Transonic Systems Inc., Ithaca, N.Y.). It was continuously recorded over a 90-min period to monitor thrombosis-induced occlusion. Integrated carotid blood flow was measured by the area under the flow-time curve. It was expressed as percent of total control carotid blood flow, which would result if control blood flow had been maintained continuously for 90 min. […]

The structures appear in SMILES notation.

The term IC50 denotes the concentration that gives 50% inhibition.

Chain of PAR1 (P25116 22-425): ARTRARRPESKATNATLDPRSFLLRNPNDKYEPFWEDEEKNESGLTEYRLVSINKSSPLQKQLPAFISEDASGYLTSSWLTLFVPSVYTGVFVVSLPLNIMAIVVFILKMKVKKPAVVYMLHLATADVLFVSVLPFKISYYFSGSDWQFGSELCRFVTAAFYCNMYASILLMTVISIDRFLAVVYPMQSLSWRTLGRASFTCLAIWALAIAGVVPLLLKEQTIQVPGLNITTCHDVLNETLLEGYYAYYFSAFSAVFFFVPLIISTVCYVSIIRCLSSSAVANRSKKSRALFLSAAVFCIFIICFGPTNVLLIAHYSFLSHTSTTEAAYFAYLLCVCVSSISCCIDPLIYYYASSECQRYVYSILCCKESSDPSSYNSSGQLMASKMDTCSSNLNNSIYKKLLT

On to `CCOC(=O)N[C@@H]1CC[C@@H]2[C@@H](C1)C[C@H]1C(=O)O[C@H](C)[C@H]1[C@H]2/C=C/c1ccc(-c2cccc(F)c2)cn1` [vorapaxar], for which, in data set [1], the cardiovascular events entry is reported as “did not significantly reduce” and the “risk of major bleeding” value was “significantly increased”.
For `COc1cc(OCc2csc(-c3ccccc3)n2)c2cc(-c3cn4nc(OC)sc4n3)oc2c1` [Example 3, 2-Methoxy-6-(6-methoxy-4-((2-phenylthiazol-4-yl)methoxy)benzofuran-2-yl)imidazo[2,1-b][1,3,4]thiadiazole], the “inhibition of thrombus formation / antithrombotic efficacy” value in data set [2] is “antithrombotic efficacy”. Also, the IC50 in data set [3] stood at 5 nM. The “antithrombotic efficacy in electrically-induced arterial thrombus model (dose response, FIG. 1C)” value in data set [4] is given as “in vivo antithrombotic efficacy”.
